One may read the Ki as a measure of affinity in units of concentration, obtained from inhibition or displacement.

Series [1] has as its system H1650 human lung cancer cell line. In words: CellTiter 96 Aqueous One relative growth assay. Type of series: cell-based. Particulars: for cell viability (FIG. 85) / cell viability (FIG. 91): ARQ-197 up to 3 μM; for relative growth percentage: BMS-303141 20 μM, alone or both.
For series [2] the following is noted: cited from earlier work.
Series [3] concerns HCT116 human colon cancer cell line. In words: CellTiter 96 Aqueous One relative growth assay. The conditions noted are these: for cell viability (FIG. 86): ARQ-197 up to 3 μM.
Series [4] has as its system A549 human lung cancer cell line. The series is described as follows: CellTiter 96 Aqueous One relative growth assay. The format is cell-based. The conditions noted are these: for cell viability (FIG. 84) / cell viability (FIG. 90): ARQ-197 up to 3 μM; for relative growth percentage: BMS-303141 20 μM, alone or both.
For series [5] the following is noted: multiple species; cited from earlier work.
A further series deals with CaCo-2. The conditions noted are these: cited from earlier work.
For series [6], the system named is SW48 human colon cancer cell line. In words: CellTiter 96 Aqueous One relative growth assay. Particulars: for cell viability (FIG. 87): ARQ-197 up to 3 μM, Atorvastatin up to 40 μM. Type of series: cell-based. From the text: The SW48 human colon cancer cell line was procured from ATCC (American Type Culture Collection, Manassas, Va.).
For series [7] the following is noted: in vivo, cited from earlier work.
The conditions of series [8]: cited from earlier work. The source holds these as a separate data set.
For series [9] the following is noted: XALKORI 250 mg twice daily, cited from earlier work.
Another series has as its target T1, ATP citrate lyase (Homo sapiens, UniProt P53396).
T1 sequence (P53396 1-1101): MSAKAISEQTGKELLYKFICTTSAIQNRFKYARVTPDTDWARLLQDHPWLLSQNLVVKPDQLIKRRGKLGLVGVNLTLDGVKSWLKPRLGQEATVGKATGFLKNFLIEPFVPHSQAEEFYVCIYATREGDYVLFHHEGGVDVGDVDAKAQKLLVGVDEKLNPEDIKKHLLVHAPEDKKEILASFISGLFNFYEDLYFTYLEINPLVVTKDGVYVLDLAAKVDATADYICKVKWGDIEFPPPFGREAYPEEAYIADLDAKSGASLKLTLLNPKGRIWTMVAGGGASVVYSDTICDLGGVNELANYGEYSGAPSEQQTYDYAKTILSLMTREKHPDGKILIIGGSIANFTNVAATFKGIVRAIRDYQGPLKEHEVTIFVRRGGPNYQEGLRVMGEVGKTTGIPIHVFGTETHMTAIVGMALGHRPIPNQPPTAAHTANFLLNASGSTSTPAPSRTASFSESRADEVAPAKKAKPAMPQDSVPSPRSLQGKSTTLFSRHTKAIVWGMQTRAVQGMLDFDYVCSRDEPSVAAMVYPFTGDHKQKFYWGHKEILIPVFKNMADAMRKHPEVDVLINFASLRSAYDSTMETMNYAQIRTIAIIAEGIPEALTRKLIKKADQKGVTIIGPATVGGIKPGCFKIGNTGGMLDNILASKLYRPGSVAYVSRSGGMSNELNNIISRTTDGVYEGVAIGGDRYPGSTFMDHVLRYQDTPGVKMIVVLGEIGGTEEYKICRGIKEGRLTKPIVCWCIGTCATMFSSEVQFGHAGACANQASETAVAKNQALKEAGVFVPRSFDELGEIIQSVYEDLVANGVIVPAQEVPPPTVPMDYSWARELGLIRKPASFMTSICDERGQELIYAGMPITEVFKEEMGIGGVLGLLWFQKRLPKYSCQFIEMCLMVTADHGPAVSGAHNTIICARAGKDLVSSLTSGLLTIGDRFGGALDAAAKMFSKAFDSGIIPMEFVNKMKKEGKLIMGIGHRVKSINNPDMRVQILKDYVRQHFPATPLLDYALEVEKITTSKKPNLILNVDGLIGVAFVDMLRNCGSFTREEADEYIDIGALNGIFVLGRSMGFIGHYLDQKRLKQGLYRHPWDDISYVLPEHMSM
The conditions noted are these: cited from earlier work.

The next series relates to Hep G2 cells. Particulars: dose-related; cited from earlier work.
For series [10] the following is noted: rats; cited from earlier work.
For series [11] the following is noted: in vivo; cited from earlier work.
For series [12] the following is noted: cited from earlier work. This is another data set of the same source.
The conditions of series [13]: plasma, steady-state; cited from earlier work.
Setting [14] is: Sorafenib up to 5 μM, Atorvastatin up to 40 μM.
Where [15] appears, read: BMS-303141 up to 20 μM, Sorafenib 3 μM and 5 μM.
Setting [16] is: single 250 mg radiolabeled dose, healthy subjects.
Where [17] appears, read: single 250 mg radiolabeled dose.

Read-outs that look alike come from different tables or passages of the source.

With `O=C1NC(=O)[C@@H](c2cn3c4c(cccc24)CCC3)[C@@H]1c1c[nH]c2ccccc12` [ARQ-197, (3R,4R)-3-(5,6-dihydro-4H-pyrrolo[3,2,1-ij]quinolin-1-yl)-4-(1H-indol-3-yl)pyrrolidine-2,5-dione], the “cell viability (FIG. 85)” value in series [1] (Atorvastatin up to 40 μM) is on record as “negligible effect”. The “cell viability (FIG. 91)” value in series [1] (BMS-303141 up to 20 μM) was “minor decrease”. In addition, in [2], the “mean terminal half-life (t1/2), tivantinib in plasma” value was 11.7 h and the “median time to maximal concentration (tmax), tivantinib in plasma” value is 4 h. In series [3] (Atorvastatin up to 40 μM), the “cell viability (FIG. 86)” value is “small decrease”. Also, the “cell viability (FIG. 84)” value in [4] (Atorvastatin up to 40 μM) is on record as “a decrease”. Moreover, in series [4] (BMS-303141 up to 20 μM), the “cell viability (FIG. 90)” value is listed as “minor decrease”. Further, the oral bioavailability entry in series [5] is “greater than 20%”. For the same molecule, the “permeability (CaCo-2 flux data)” value in the series with CaCo-2 is recorded as “good permeability”. In addition, in series [6], the “cell viability (FIG. 87)” value is “most pronounced”.
Regarding `CC(C)c1c(C(=O)Nc2ccccc2)c(-c2ccccc2)c(-c2ccc(F)cc2)n1CC[C@@H](O)C[C@@H](O)CC(=O)O` [Atorvastatin, (3R,5R)-7-[2-(4-fluorophenyl)-3-phenyl-4-(phenylcarbamoyl)-5-propan-2-ylpyrrol-1-yl]-3,5-dihydroxyheptanoic acid], the “cell viability (FIG. 85)” value in series [1] (Atorvastatin up to 40 μM) is on record as “negligible effect”. Moreover, in series [1] (setting [14]), the “cell viability (FIG. 72)” value is “negligible decrease”. The “orally administered dose recovered in urine” value in series [7] (po) is recorded as “Less than 2%”. Also, in [7], the “circulating inhibitory activity for HMG-CoA reductase attributed to active metabolites” value is recorded as “Approximately 70%” and the “systemic availability of the HMG-CoA reductase inhibitory activity” value is “approximately 30%”. In addition, the “cell viability (FIG. 86)” value in [3] (Atorvastatin up to 40 μM) is listed as “small decrease”. In addition, the “cell viability (FIG. 73)” value in series [3] (setting [14]) was “insignificant decrease”. For the same molecule, the “cell viability (FIG. 84)” value in series [4] (Atorvastatin up to 40 μM) is “a decrease”. Moreover, the “cell viability (FIG. 71)” value in series [4] (setting [14]) is listed as “negligible decrease”. Further, the “cell viability (FIG. 87)” value in series [6] is given as “a decrease”. In addition, in [6] (Sorafenib up to 5 μM, Atorvastatin up to 10 μM), the “cell viability (FIG. 75)” value is listed as “negligible effect”.
With `COc1ccc(-c2ccccc2)cc1NS(=O)(=O)c1cc(Cl)cc(Cl)c1O` [BMS-303141, 3,5-Dichloro-2-hydroxy-N-(4-methoxy-[1,1′-biphenyl]-3-yl)-benzenesulfonamide], the relative growth percentage result is “about 76%” in [1] (ARQ-197 3 μM, about 66 hours); “about 76%” in series [1] (Sorafenib 5 μM, about 68 hours); “about 54%” in series [3] (Sorafenib 5 μM, BMS-303141 20 μM, alone or both, about 66 hours); “about 105%” in series [4] (ARQ-197 3 μM, about 66 hours); “about 105%” in series [4] (Sorafenib 5 μM, about 68 hours); “about 78%” in series [6] (Sorafenib 5 μM, BMS-303141 20 μM, alone or both, about 68 hours). In [1] (BMS-303141 up to 20 μM), the “cell viability (FIG. 91)” value was “minor decrease”. For the same molecule, the “cell viability (FIG. 79)” value in series [1] (setting [15]) is given as “minor decrease”. Moreover, the “cell viability (FIG. 80)” value in series [3] (setting [15]) is “a decrease”. Moreover, the “cell viability (FIG. 90)” value in [4] (BMS-303141 up to 20 μM) is listed as “minor decrease”. The “cell viability (FIG. 78)” value in series [4] (setting [15]) is reported as “negligible decrease”. The “cell viability (FIG. 81)” value in [6] (setting [15]) is listed as “minimal decrease”.
Turning to `C[C@@H](Oc1cc(-c2cnn(C3CCNCC3)c2)cnc1N)c1c(Cl)ccc(F)c1Cl` [Crizotinib, 3-[(1R)-1-(2,6-dichloro-3-fluorophenyl)ethoxy]-5-(1-piperidin-4-ylpyrazol-4-yl)pyridin-2-amine], the “time to steady state” value in series [8] (250 mg twice daily) is at most 15 days. In addition, in [8] (high-fat meal), the “reduction of AUCinf by a high-fat meal” value is recorded as “approximately 14%” and the “reduction of Cmax by a high-fat meal” value is “approximately 14%”. Moreover, in series [8] (single 250 mg oral dose), the mean absolute bioavailability is reported as 43% and the “mean apparent clearance (CL/F)” value is given as 100 L/h. Moreover, in [8] (setting [16]), the “administered dose recovered in feces” value is given as 63% and the “administered dose recovered in urine” value is 22%. In series [8] (setting [17]), the “unchanged crizotinib in feces, of administered dose” value is “approximately 53%” and the “unchanged crizotinib in urine, of administered dose” value is given as around 2.3%. In series [8] (steady state after 250 mg twice daily), the “mean apparent clearance (CL/F)” value was 60 L/h. Also, the “patients with QTcF greater than or equal to 500 msec” value in series [9] (16 of 1167 patients) was 1.4%. The “patients with increase from baseline QTcF greater than or equal to 60 msec” value in series [9] (51 of 1136 patients) was 4.4%.
Take `O=C(O)C[C@@](O)(C[C@@H](O)CCCCCCc1ccc(Cl)cc1Cl)C(=O)O` [SB-201076, (2S)-2-[(2S)-8-(2,4-dichlorophenyl)-2-hydroxyoctyl]-2-hydroxybutanedioic Acid]: the Ki at ATP citrate lyase (competitive inhibitor, humans) was 1000 nM.
For `O=C(O)C[C@](O)(C[C@@H](O)CCCCCCc1ccc(Cl)cc1Cl)C(=O)O` [SB-204990, (2R)-2-[(2S)-8-(2,4-dichlorophenyl)-2-hydroxyoctyl]-2-hydroxybutanedioic Acid], in the series on Hep G2 cells, the “inhibition of cholesterol synthesis” value is reported as “up to 91%” and the “inhibition of fatty acid synthesis” value is at most 82%. In addition, in [10], the “inhibition of cholesterol synthesis” value is recorded as 76% and the “inhibition of fatty acid synthesis” value is listed as 39%. The “direct inhibition of ATP citrate-lyase” value at ATP citrate lyase is listed as “does not inhibit”.
For `CCC(C)(C)C(=O)O[C@H]1C[C@@H](C)C=C2C=C[C@H](C)[C@H](CC[C@@H]3C[C@@H](O)CC(=O)O3)[C@H]21` [Simvastatin, [(1S,3R,7S,8S,8aR)-8-[2-[(2R,4R)-4-hydroxy-6-oxooxan-2-yl]ethyl]-3,7-dimethyl-1,2,3,7,8,8a-hexahydronaphthalen-1-yl]2,2-dimethylbutanoate], the Half-life in series [11] is 3 h.
Turning to `Cn1cncc1[C@@](N)(c1ccc(Cl)cc1)c1ccc2c(c1)c(-c1cccc(Cl)c1)cc(=O)n2C` [Tipifamib, 6-[(R)-amino-(4-chlorophenyl)-(3-methylimidazol-4-yl)methyl]-4-(3-chlorophenyl)-1-methylquinolin-2-one], the absolute oral bioavailability in series [12] (healthy volunteers, fed conditions) is 34%. For the same molecule, in [12] (in vivo), the Half-life is 2 to 5 h and the “urinary excretion of unchanged drug or its metabolites, of total dose” value is listed as 13.7%. Further, the “time to maximum plasma concentrations” value in [12] (oral administration) was “two to three”. Moreover, in series [12] (two-fold increase in bilirubin concentration), the decrease in clearance was 6.9%. Moreover, the “decrease in relative growth” value in series [3] (Tipifamib 3 μM, Crizotinib 8 μM, alone or combined, about 66 hours) is reported as around 22%.
As for `[O-][n+]1ccccc1` [pyridine N-oxide], the “share of the circulating analytes in plasma at steady-state” value in series [13] is listed as 9-16%.

(Values after patent US20160058751A1, “COMPOSITION AND METHOD FOR TREATING CANCER” (CELLWORKS GROUP, INC., priority 2013, published 2016).)
